Measurements reported in patent US20120196918A1, “PREVENTING ISLET INFLAMMATION AND DYSFUNCTION AND MAINTAINING PROPER GLUCOSE LEVELS BY CONTROLLING eIF5A AND ITS HYPUSINATION” (priority 2009, published 2012).

Tests used:
iNOS [1] = assay: Cytokine-induced iNOS protein in islets from siRNA-injected mice (immunoblot); type: cell-based, mouse; conditions: cytokines 4 h
Experimental: Because nitric oxide is known to be a primary effector of islet dysfunction in response to cytokine-induced stress, the transcription of the gene encoding iNOS (Nos2) was also examined.
Cytokine and inhibitor incubation studies: For cytokine incubation assays, a 1000× cocktail of cytokines containing 5 μg/ml IL1β, 10 μg/ml TNFα, and 100 μg/ml IFNγ (all prepared in 0.1% BSA in Tris-buffered saline) was applied at 1× final concentration to groups of 50 islets or 1×10^6 INS-1 (832/13) cells for a total of 4 h at 37° C. […]
(§1) Immunoblot and nitrite and iNOS assays: Whole cell extracts were resolved by electrophoresis on a 4-20% SDS-polyacrylamide gel, followed by immunoblot using anti-eIF5A1, anti-eIF5A2, anti-iNOS, anti-GFP, or anti-actin primary antibodies and fluorophore-labeled secondary antibodies. Immunoblots were visualized using the Li-Cor® Odyssey® system (Li-Cor Biosciences) and quantitated by scanning fluorometry using Odyssey Imaging v. […] Nitrite was quantitated by measuring nitric oxide-derived nitrite from INS-1 cell culture medium using the Griess reagent (Promega) according to the manufacturer's recommendations. iNOS activity was measured using a commercially available kit (Cayman).

iNOS [2] = assay: Cytokine-induced iNOS protein in human islets (immunoblot); type: cell-based; conditions: incubation with GC7, cytokines
From the text: eIF5A1 and eIF5A2 are the only proteins known to contain the unique amino acid hypusine at position 50. Hypusine is formed as a posttranslational modification of residue Lys50 in a reaction requiring spermidine and catalyzed by the sequential actions of the enzymes deoxyhypusine synthase (DHS) and deoxyhypusine hydroxylase (DOHH) (Chen, K Y, and Liu, A Y. Biochemistry and function of hypusine formation on eukaryotic initiation factor 5A. Biol Signals. 1997; 6(3):105-109). […] To further investigate the mechanism of eIF5A-regulated translation of Nos2, studies were performed following overnight incubation of cells with mimosine (an inhibitor of DOHH) and GC7 (an inhibitor of DHS). […]
as §1

INS-1 cells = assay: Cell cycle analysis of INS-1 cells (propidium iodide cytometry); type: cell-based
Experimental: (§2) Because GC7 is known to be inactivated by the action amine oxidases, which are abundant in serum, typical studies with GC7 in the literature have used aminoguanidine to inhibit amine oxidases (16). […] To rule out possible adverse effects of GC7 on cell viability, quantitative 2 color fluorescence analysis of live (calcein-AM-positive) and dead (ethidium homodimer-1-positive) cells were performed using fluorescence cytometry.
For flow cytometry studies, INS-1 cells (serum starved or pretreated with GC7 as indicated in the figures) were stained with calcein-AM and ethidium homodimer 1 (Live/Dead® kit, Invitrogen) for 30 minutes, and 30,000 cells/sample were analyzed for green (living cells) and red (dead cells) fluorescence using a FACS Calibur (BD bioscience) instrument. For cell cycle analysis, 10^6 cells were washed in PBS and fixed in ice-cold 70% ethanol for 1 hour. After washing in PBS, cells were re-suspended in Guava cell cycle reagent (Millipore) and incubated at room temperature for 30 minutes. Intercalation of propidium iodide into cellular DNA was quantitated using a FACS Calibur instrument and the data analyzed for cell cycle status using Modfit software.

iNOS [3] = assay: iNOS activity assay (commercial kit); type: biochemical; conditions: GC7 125 μM
Experimental: as §2
Immunoblot and nitrite and iNOS assays: Whole cell extracts were resolved by electrophoresis on a 4-20% SDS-polyacrylamide gel, followed by immunoblot using anti-eIF5A1, anti-eIF5A2, anti-iNOS, anti-GFP, or anti-actin primary antibodies and fluorophore-labeled secondary antibodies. Immunoblots were visualized using the Li-Cor® Odyssey® system (Li-Cor Biosciences) and quantitated by scanning fluorometry using Odyssey Imaging v. 3.0 software (Li-Cor Biosciences). Nitrite was quantitated by measuring nitric oxide-derived nitrite from INS-1 cell culture medium using the Griess reagent (Promega) according to the manufacturer's recommendations. iNOS activity was measured using a commercially available kit (Cayman).

iNOS [4] = assay: Cytokine-induced iNOS protein in INS-1 cells (immunoblot); type: cell-based, rat
From the text: (§3) eIF5A1 and eIF5A2 are the only proteins known to contain the unique amino acid hypusine at position 50. Hypusine is formed as a posttranslational modification of residue Lys50 in a reaction requiring spermidine and catalyzed by the sequential actions of the enzymes deoxyhypusine synthase (DHS) and deoxyhypusine hydroxylase (DOHH) (Chen, K Y, and Liu, A Y. Biochemistry and function of hypusine formation on eukaryotic initiation factor 5A. Biol Signals. 1997; 6(3):105-109). […] To further investigate the mechanism of eIF5A-regulated translation of Nos2, studies were performed following overnight incubation of cells with mimosine (an inhibitor of DOHH) and GC7 (an inhibitor of DHS). […] Similar data using GC7 were obtained in primary mouse islets (data not shown) and in human islets (FIGS. 5F and 5G).
as §2
Cytokine and inhibitor incubation studies: For cytokine incubation assays, a 1000× cocktail of cytokines containing 5 μg/ml IL1β, 10 μg/ml TNFα, and 100 μg/ml IFNγ (all prepared in 0.1% BSA in Tris-buffered saline) was applied at 1× final concentration to groups of 50 islets or 1×10^6 INS-1 (832/13) cells for a total of 4 h at 37° C. For GC7 incubation studies, GC7 was prepared at a stock concentration of 125 mM in 10 mM acetic acid and applied to cultures of 50 islets or 1×10^6 INS-1 cells to obtain the final concentrations indicted in the figures. Where needed, GC7 was protected from amine oxidases in serum by addition of 1 mM aminoguanidine (Sigma). Cells were incubated with GC7 overnight (˜16 h) at 37° C. prior to analysis. Cells were exposed to Leptomycin B (Cayman Chemicals) for 3 hours; leptomycin B was prepared at a 1000× stock concentration of 20 μg/ml in ethanol.
as §1

eIF5A-Hyp = assay: New hypusine formation (3H-spermidine incorporation) in INS-1 (832/13) cells; type: cell-based, rat; conditions: GC7 125 μM overnight
From the text: as §3, with “5G). […]” for “5G).”
Measurement of hvpusination: Approximately 100 islets or 1×10^6 INS-1 cells per condition were incubated with 1.5 μCi ^3H-spermidine (Perkin Elmer) in the presence of 1 mM aminoguanidine. […] Gels were visualized by fluorography, and bands were quantitated using Kodak Molecular Imaging Software v. […]

Row | Compound | induction of iNOS protein in islets (iNOS [1]) | iNOS protein levels in human islets (iNOS [2]) | cell cycle progression (INS-1 cells; 3 days GC7 exposure) | cell cycle progression (G1-S) (INS-1 cells; overnight GC7, any concentration) | inhibition of iNOS activity (iNOS [3]) | concentration at which inhibition of iNOS was observed (iNOS [4]; co-incubation with 1 mM aminoguanidine) [µM] | iNOS protein after cytokines (iNOS [4]; increasing inhibitor concentrations overnight, cytokines 4 h) | concentration required to substantially block iNOS (iNOS [4]; without aminoguanidine) [µM] | new hypusine formation in INS-1 (832/13) (eIF5A-Hyp)
1 | 5′-AACGGAAUGACUUCCAGCUGA-3′ (siSTABLE modification, further chemistry not given here) [si-eIF5A] | significantly attenuated | – | – | – | – | – | – | – | –
2 | NCCCCCCCN=C(N)N [GC7] | – | dose-dependent inhibition | cell cycle block was clearly apparent | no significant effect on cell cycle progression | does not appear to inhibit iNOS activity | ~3 | dose-dependent attenuation | > 30 | effectively inhibits new hypusine formation
